According to US20230365542A1, “Selective Agonists of 5-HT2A Receptor and Methods of Use” (Yale University, priority 2020, published 2023):
pEC50, pKi: −log10 of the molar value. Read-outs that look alike come from different tables or passages of the source.

Experiments:
5-HT2BR [1] = biological target: T1, 5-HT2BR (Homo sapiens, UniProt P41595); assay: Calcium flux assay (FLIPR, Fluo-4), 5-HT2BR stable cell line; format: cell-based; conditions: for pEC50: read-out: 5-HT2BR EC50; for 5-HT2BR Rmax ± S.E.M: value in parentheses; for EC50: bracketed value below EC50, read-out: 5-HT2BR pEC50 ± S.E.M (converted)
T1 construct: expressed in transfected cells; host or cells: Flp-In 293 T-Rex (tetracycline inducible)
Method: Stable cell lines for 5-HT2AR, 5-HT2BR and 5-HT2CR generated using the Flp-In 293 T-Rex Tetracycline inducible system (Invitrogen). Tetracycline-induced cells were seeded in 384-well poly-L-lysine plates at a density of 10,000 cells/well in DMEM containing 1% dialyzed FBS at least 16-24 hr before the calcium flux assay. On the day of the assay, the cells were incubated (20 ul/well) for 1 hr at 37° C. with Fluo-4 Direct dye (Invitrogen) reconstituted in FLIPR buffer (1×HBSS, 2.5 mM probenecid, and 20 mM HEPES, pH 7.4). After dye loading, cells were placed in a FLIPR^TETRA fluorescence imaging plate reader ([…]). Drug dilutions were prepared at 3× final concentration in drug buffer (1×HBSS, 20 mM HEPES, 0.1% BSA, 0.01% ascorbic acid, pH 7.4) and aliquoted into 384-well plates and placed in the FLIPR^TETRA for drug stimulation. The fluidics module and plate reader of the FLIPR^TETRA were programmed to read baseline fluorescence for 10s (1 read/s), then 10 ul of drug/well was added and read for 5 min (1 read/s). Fluorescence in each well was normalized to the average of the first 10 reads (i.e., baseline fluorescence). Then, the maximum-fold increase, which occurred within the first 60 s after drug addition, was determined and fold over baseline was plotted as a function of drug concentration. Data were normalized to % 5-HT stimulation and analyzed using “log(agonist) vs. response” in GraphPad Prism 9.0.

5-HT2BR [2] = biological target: T1, 5-HT2BR; assay: 5-HT2BR binding affinity (Ki), Table 8; conditions: for pKi: read-out: 5-HT2BR Ki; for Ki: bracketed value below Ki, read-out: 5-HT2BR pKi ± S.E.M (converted)
5-HT2AR [3] = biological target: T2, 5-HT2AR (Homo sapiens, UniProt P28223); assay: 5-HT2AR binding affinity (Ki), Table 8; conditions: for pKi: read-out: 5-HT2AR Ki
T2 construct: expressed in transfected cells; host or cells: Flp-In 293 T-Rex (tetracycline inducible)

5-HT2AR [4] = biological target: T2, 5-HT2AR; assay: Calcium flux assay (FLIPR, Fluo-4), 5-HT2AR stable cell line; format: cell-based; conditions: for pEC50: read-out: 5-HT2AR EC50; for 5-HT2AR Rmax ± S.E.M: value in parentheses
Method: Stable cell lines for 5-HT2AR, 5-HT2BR and 5-HT2CR generated using the Flp-In 293 T-Rex Tetracycline inducible system (Invitrogen). Tetracycline-induced cells were seeded in 384-well poly-L-lysine plates at a density of 10,000 cells/well in DMEM containing 1% dialyzed FBS at least 16-24 hr before the calcium flux assay. On the day of the assay, the cells were incubated (20 ul/well) for 1 hr at 37° C. with Fluo-4 Direct dye (Invitrogen) reconstituted in FLIPR buffer (1×HBSS, 2.5 mM probenecid, and 20 mM HEPES, pH 7.4). After dye loading, cells were placed in a FLIPR^TETRA fluorescence imaging plate reader (Molecular Dynamics). Drug dilutions were prepared at 3× final concentration in drug buffer (1×HBSS, 20 mM HEPES, 0.1% BSA, 0.01% ascorbic acid, pH 7.4) and aliquoted into 384-well plates and placed in the FLIPR^TETRA for drug stimulation. The fluidics module and plate reader of the FLIPR^TETRA were programmed to read baseline fluorescence for 10s (1 read/s), then 10 ul of drug/well was added and read for 5 min (1 read/s). Fluorescence in each well was normalized to the average of the first 10 reads (i.e., baseline fluorescence). Then, the maximum-fold increase, which occurred within the first 60 s after drug addition, was determined and fold over baseline was plotted as a function of drug concentration. Data were normalized to % 5-HT stimulation and analyzed using “log(agonist) vs. response” in GraphPad Prism 9.0.

5-HT2CR = biological target: T3, 5-HT2CR (Homo sapiens, UniProt P28335); assay: 5-HT2CR binding affinity (Ki), Table 8; conditions: read-out: 5-HT2CR Ki
T3 sequence (P28335 33-458): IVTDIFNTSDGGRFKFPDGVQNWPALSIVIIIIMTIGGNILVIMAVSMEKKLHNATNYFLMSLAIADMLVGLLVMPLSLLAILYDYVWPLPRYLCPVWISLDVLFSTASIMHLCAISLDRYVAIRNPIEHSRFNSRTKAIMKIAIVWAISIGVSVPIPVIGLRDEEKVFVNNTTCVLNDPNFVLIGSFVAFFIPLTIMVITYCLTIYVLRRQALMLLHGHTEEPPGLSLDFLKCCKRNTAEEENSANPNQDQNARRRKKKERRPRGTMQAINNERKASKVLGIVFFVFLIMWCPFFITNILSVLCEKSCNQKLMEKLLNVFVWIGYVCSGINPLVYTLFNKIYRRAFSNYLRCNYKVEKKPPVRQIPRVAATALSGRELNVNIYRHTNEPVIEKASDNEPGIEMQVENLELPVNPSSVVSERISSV

T2 sequence (P28223 whole entry): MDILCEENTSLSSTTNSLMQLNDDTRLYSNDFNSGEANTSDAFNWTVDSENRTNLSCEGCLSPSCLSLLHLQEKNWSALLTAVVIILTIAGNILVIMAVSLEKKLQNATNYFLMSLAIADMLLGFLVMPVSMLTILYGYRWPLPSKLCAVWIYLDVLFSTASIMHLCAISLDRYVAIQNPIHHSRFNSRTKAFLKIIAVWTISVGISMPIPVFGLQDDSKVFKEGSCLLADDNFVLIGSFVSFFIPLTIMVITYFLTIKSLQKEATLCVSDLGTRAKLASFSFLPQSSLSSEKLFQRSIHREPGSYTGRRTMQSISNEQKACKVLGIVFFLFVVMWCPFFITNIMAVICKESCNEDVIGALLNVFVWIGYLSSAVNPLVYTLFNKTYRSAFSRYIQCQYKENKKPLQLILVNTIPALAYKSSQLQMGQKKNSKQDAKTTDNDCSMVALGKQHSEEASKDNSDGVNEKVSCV
T1 sequence (P41595 whole entry): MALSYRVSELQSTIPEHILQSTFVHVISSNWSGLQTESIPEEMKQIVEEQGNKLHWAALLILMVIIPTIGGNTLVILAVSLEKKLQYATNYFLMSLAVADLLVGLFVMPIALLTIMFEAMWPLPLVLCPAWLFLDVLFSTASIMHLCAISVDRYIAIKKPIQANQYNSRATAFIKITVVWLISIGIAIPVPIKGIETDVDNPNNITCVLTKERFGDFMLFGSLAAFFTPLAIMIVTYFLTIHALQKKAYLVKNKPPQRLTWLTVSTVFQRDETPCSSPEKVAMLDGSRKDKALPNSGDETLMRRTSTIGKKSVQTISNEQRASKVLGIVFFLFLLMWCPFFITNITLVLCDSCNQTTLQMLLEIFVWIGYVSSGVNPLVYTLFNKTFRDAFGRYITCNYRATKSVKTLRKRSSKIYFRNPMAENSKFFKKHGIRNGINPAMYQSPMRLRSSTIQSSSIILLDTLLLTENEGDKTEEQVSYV

CC1C=C(c2cnn(C)c2)CN(CC2(C)COC2)C1 (racemic) [Compound 1, 3-Methyl-5-(1-methyl-1H-pyrazol-4-yl)-1-((3-methyloxetan-3-yl)methyl)-1,2,3,6-tetrahydropyridine]
pEC50 (5-HT2BR [1]): 5.71 | 5-HT2BR Rmax ± S.E.M (5-HT2BR [1]): 48.9% | pKi (5-HT2BR [2]): 5.41

CCc1cncn1CCN1CC(c2cccn2C)=CC(C)C1 (racemic) [Compound 2, 1-(2-(5-Ethyl-1H-imidazol-1-yl)ethyl)-3-methyl-5-(1-methyl-1H-pyrrol-2-yl)-1,2,3,6-tetrahydropyridine]
pEC50 (5-HT2BR [1]): 5.53 | 5-HT2BR Rmax ± S.E.M (5-HT2BR [1]): 56.3% | pKi (5-HT2BR [2]): 5.57 | pKi (5-HT2AR [3]): 5.21 | 5-HT2AR EC50 (5-HT2AR [4]): antagonist

CCCCCN1CC(c2cnn(C)c2)=CC(C)C1 (racemic) [Compound 3, 3-Methyl-5-(1-methyl-1H-pyrazol-4-yl)-1-pentyl-1,2,3,6-tetrahydropyridine]
5-HT2BR EC50 (5-HT2BR [1]): antagonist | pKi (5-HT2BR [2]): 5.83 | pEC50 (5-HT2AR [4]): < 5.00

Cc1cncc(C2=CC(C)CN(CC3(O)COC3)C2)c1 (racemic) [Compound 4, 3-((5,5′-Dimethyl-5,6-dihydro-[3,3′-bipyridin]-1(2H)-yl)methyl)oxetan-3-ol]
5-HT2BR EC50 (5-HT2BR [1]): antagonist | pKi (5-HT2BR [2]): 6.17

Cc1cncc(C2=C[C@H](C)CN(CC3(O)COC3)C2)c1 (stereo in doubt) [Compound 6, 3-((5,5′-Dimethyl-5,6-dihydro-[3,3′-bipyridin]-1(2H)-yl)methyl)oxetan-3-ol]
EC50 (5-HT2BR [1]): 0.115 µM | pEC50 (5-HT2BR [1]): 6.92 | 5-HT2BR Rmax ± S.E.M (5-HT2BR [1]): (16.0% | Ki (5-HT2BR [2]): 0.245 µM | pKi (5-HT2AR [3]): < 5.00 | pKi (5-HT2CR): < 5.00

CCCCN1CC(c2cncc(C)c2)=C[C@H](C)C1 (stereo in doubt) [Compound 14, 1-Butyl-5,5′-dimethyl-1,2,5,6-tetrahydro-3,3′-bipyridine]
EC50 (5-HT2BR [1]): 0.0282 µM | 5-HT2BR Rmax ± S.E.M (5-HT2BR [1]): (71.7% | Ki (5-HT2BR [2]): 0.0309 µM | pKi (5-HT2BR [2]): 7.52 | pKi (5-HT2AR [3]): < 5.00 | pEC50 (5-HT2AR [4]): 5.74 | 5-HT2AR Rmax ± S.E.M (5-HT2AR [4]): (57.3% | pKi (5-HT2CR): < 5.00

C[C@@H]1C=C(c2cncc(Cl)c2)CN(C)C1 (stereo in doubt) [Compound 17, 5′-chloro-1,5-dimethyl-1,2,5,6-tetrahydro-3,3′-bipyridine]
EC50 (5-HT2BR [1]): 0.0269 µM | 5-HT2BR Rmax ± S.E.M (5-HT2BR [1]): (42.1% | Ki (5-HT2BR [2]): 0.0302 µM | pKi (5-HT2AR [3]): 5.68 | EC50 (5-HT2AR [4]; bracketed value below EC50, read-out: 5-HT2AR pEC50 ± S.E.M (converted)): 0.347 µM | 5-HT2AR Rmax ± S.E.M (5-HT2AR [4]): (14.9% | pKi (5-HT2CR): < 5.00

C[C@H]1C=C(c2cncc(Cl)c2)CN(C)C1 (stereo in doubt) [Compound 18, 5′-chloro-1,5-dimethyl-1,2,5,6-tetrahydro-3,3′-bipyridine]
5-HT2BR EC50 (5-HT2BR [1]): antagonist | Ki (5-HT2BR [2]): 0.138 µM | Ki (5-HT2AR [3]; bracketed value below Ki, read-out: 5-HT2AR pKi ± S.E.M (converted)): 3.16 µM | pKi (5-HT2AR [3]): 5.49 | pEC50 (5-HT2AR [4]): 6.06 | 5-HT2AR Rmax ± S.E.M (5-HT2AR [4]): (13.7% | pKi (5-HT2CR): < 5.00

Cc1cncc(C2=C[C@@H](C)CN(CC3(O)COC3)C2)c1 [Compound 5, 3-((5,5′-Dimethyl-5,6-dihydro-[3,3′-bipyridin]-1(2H)-yl)methyl)oxetan-3-ol]
5-HT2BR EC50 (5-HT2BR [1]): antagonist | Ki (5-HT2BR [2]): 3.24 µM | pKi (5-HT2AR [3]): < 5.00 | pKi (5-HT2CR): < 5.00

C[C@@H]1C=C(c2cncc(Cl)c2)CN(CC2(O)COC2)C1 [Compound 7, 3-((5′-Chloro-5-methyl-5,6-dihydro-[3,3′-bipyridin]-1(2H)-yl)methyl)oxetan-3-ol]
5-HT2BR EC50 (5-HT2BR [1]): antagonist | pKi (5-HT2BR [2]): 6.02 | pKi (5-HT2AR [3]): < 5.00 | pEC50 (5-HT2AR [4]): < 5.00 | pKi (5-HT2CR): < 5.00

C[C@H]1C=C(c2cncc(Cl)c2)CN(CC2(O)COC2)C1 [Compound 8, 3-((5′-Chloro-5-methyl-5,6-dihydro-[3,3′-bipyridin]-1(2H)-yl)methyl)oxetan-3-ol]
EC50 (5-HT2BR [1]): 0.126 µM | 5-HT2BR Rmax ± S.E.M (5-HT2BR [1]): (20.4% | Ki (5-HT2BR [2]): 0.0794 µM | pKi (5-HT2AR [3]): < 5.00 | pKi (5-HT2CR): < 5.00
